# Laboratory results taken from patent publication US11963962B2, “Platelet count-agnostic methods of treating myelofibrosis” (Sierra Oncology, Inc., priority 2018, dated 2024).
# Marks after values point to notes of the source that are not given here.
# How the values were obtained:
# [1] = system: myelofibrosis; assay: SIMPLIFY-1 Phase 3 trial: transfusion independence and TD to TI conversion; format: in vivo, human; conditions: for TI rate Responders / TI rate proportion (Wilson 95% CI) / TI rate Absolute risk difference (Newcombe 95% CI): SIMPLIFY 1, week 24; for TI rate Absolute risk difference (Newcombe 95% CI) / TD to 12w rolling TI Absolute risk difference (Newcombe 95% CI) / TD to W24 TI Absolute risk difference (Newcombe 95% CI): MMB vs Control
# Excerpt: The improved outcome from MMB therapy that results from practicing the subject methods can be manifested as an improvement in one or more clinical endpoints (e.g., as described herein), such as anemia response, in spleen response and/or symptom response. By “anemia response” is meant an increase in the patient's hemoglobin level or a patient who was transfusion dependent becoming transfusion independent. Desirably, a minimum increase in hemoglobin of 0.5 g/dL, such as 1.0 g/dL 1.5 g/dL or 2.0 g/dL lasting a minimum of 8 weeks is achieved, which is the level of improvement specified in the International Working Group (IWG) consensus criteria. However, smaller, but still medically significant, increases in hemoglobin are also considered to be within the term “anemia response”. “Transfusion independence” is an anemia endpoint and refers to a subject who required no RBC transfusions over a 12 week period and had no hemoglobin levels less than 8 g/dL to 8.5 g/dL over the 12 week period. In some embodiments, the 12 week period of transfusion independence is the terminal 12 weeks of a 24 week study period. By red blood cell (RBC) transfusion independence rate at week 24 of a study is meant the proportion of subjects who were transfusion independent at week 24, excluding cases associated with clinically overt bleeding.
# (§1) In the SIMPLIFY-1 trial (NCT01969838), the efficacy and safety of MMB versus ruxolitinib (RUX) was studied in patients with myelofibrosis who were naïve to treatment with a JAK inhibitor and a platelet count of ≥50×10^9/L. Patients (N=432) with high risk or intermediate-2 risk or symptomatic intermediate-1 risk myelofibrosis received 24 weeks of treatment with 200 mg MMB once daily or 20 mg RUX twice a day (or per label), after which all patients could receive open-label momelotinib. […] The primary endpoint was a reduction by at least 35% in the spleen volume at 24 weeks compared with baseline.
# (§2) FIG. 8A: SIMPLIFY-1 study of MMB in a first line population previously untreated with JAKi. For SIMPLIFY-1, the goal was non-inferiority over ruxolitinib (RUX) (MMB: N=215 subjects, and RUX: N=217 subjects). FIG. 8B: SIMPLIFY-2 study of second line population of anemic or thrombocytopenic subjects previously treated with RUX (red blood cell (RBC) transfusions on RUX=64%. RUX dose adjustment for: thrombocytopenia=21%; anemia/hematoma=35%). For SIMPLIFY-2, the goal was superiority over best available treatment (BAT) (MMB: N=104 subjects, and BAT: N=52 subjects). In both SIMPLIFY-1 and SIMPLIFY: Primary endpoint: >=35% reduction in spleen volume at 24 weeks. Secondary endpoints: Total symptom score (TSS) response at 24 weeks. Effects on RBC transfusion requirements.
# (§3) The SIMPLIFY 1 clinical trial data was reanalyzed for subgroups of subjects having particular baseline platelet counts in the MMB versus RUX arms of the study.
# (§4) Patient data was analyzed according to the following baseline platelet count (PLT) subgroups and in particular according to the threshold PLT of 150×10^9/L: 1) PLT<50×10^9/L; 2) 50×10^9/L≤PLT<100×10^9/L; 3) 100×10^9/L≤PLT<150×10^9/L. The reanalyzed data is presented in Table 13 (SIMPLIFY 1). Selected data is also illustrated in the following figures.
# [2] = system: myelofibrosis; assay: SIMPLIFY-1 Phase 3 trial: splenic response rate (SRR); format: in vivo, human; conditions: for SRR Responders / SRR proportion (Wilson 95% CI) / SRR Absolute risk difference (Newcombe 95% CI): SIMPLIFY 1, 24 weeks; for SRR Absolute risk difference (Newcombe 95% CI): MMB vs Control
# Description: as §1, §2, §3, §4
# [3] = SIMPLIFY 1, 50 ≤ PLT < 100 ×10^9/L
# [4] = SIMPLIFY 1, 100 ≤ PLT < 150 ×10^9/L
# [5] = SIMPLIFY-1, switch from Transfusion Dependent to Independent
compound,measurement,setting,value
"Cl.N#CCNC(=O)c1ccc(-c2ccnc(Nc3ccc(N4CCOCC4)cc3)n2)cc1 [MMB, N-(cyanomethyl)-4-(2-(4-morpholinophenylamino)pyrimidin-4-yl)benzamide]",patients with transfusion independence promoted and maintained (TI rate),[1]; SIMPLIFY 1,66%
same,TI rate Responders,[1]; 50 ≤ PLT < 100 ×10^9/L,11
same,TI rate proportion (Wilson 95% CI),[1]; 50 ≤ PLT < 100 ×10^9/L,0.61
same,TI rate Absolute risk difference (Newcombe 95% CI),[1]; 50 ≤ PLT < 100 ×10^9/L,0.22
same,TI rate Responders,[1]; 100 ≤ PLT < 150 ×10^9/L,18
same,TI rate proportion (Wilson 95% CI),[1]; 100 ≤ PLT < 150 ×10^9/L,0.62
same,TI rate Absolute risk difference (Newcombe 95% CI),[1]; 100 ≤ PLT < 150 ×10^9/L,0.17
same,TI rate Responders,[1]; ITT,143
same,TI rate proportion (Wilson 95% CI),[1]; ITT,0.67
same,TI rate Absolute risk difference (Newcombe 95% CI),[1]; ITT,0.17
same,TD to 12w rolling TI Responders,[1]; [3],4
same,TD to 12w rolling TI proportion (Wilson 95% CI),[1]; [3],0.40
same,TD to W24 TI Responders,[1]; [3],5
same,TD to W24 TI proportion (Wilson 95% CI),[1]; [3],0.50
same,TD to 12w rolling TI Absolute risk difference (Newcombe 95% CI),[1]; [3],0.22
same,TD to W24 TI Absolute risk difference (Newcombe 95% CI),[1]; [3],0.32
same,TD to 12w rolling TI Responders,[1]; [4],5
same,TD to 12w rolling TI proportion (Wilson 95% CI),[1]; [4],0.45
same,TD to W24 TI Responders,[1]; [4],4
same,TD to W24 TI proportion (Wilson 95% CI),[1]; [4],0.36
same,TD to 12w rolling TI Absolute risk difference (Newcombe 95% CI),[1]; [4],0.15
same,TD to W24 TI Absolute risk difference (Newcombe 95% CI),[1]; [4],0.21
same,TD to 12w rolling TI Responders,"[1]; SIMPLIFY 1, ITT",19
same,TD to 12w rolling TI proportion (Wilson 95% CI),"[1]; SIMPLIFY 1, ITT",0.36
same,TD to W24 TI Responders,"[1]; SIMPLIFY 1, ITT",16
same,TD to W24 TI proportion (Wilson 95% CI),"[1]; SIMPLIFY 1, ITT",0.30
same,TD to 12w rolling TI Absolute risk difference (Newcombe 95% CI),"[1]; SIMPLIFY 1, ITT",0.11
same,TD to W24 TI Absolute risk difference (Newcombe 95% CI),"[1]; SIMPLIFY 1, ITT",0.13
same,Week 24 TI rate,"[1]; SIMPLIFY 1, ITT, all patients",67%
same,Week 24 TI rate,"[1]; SIMPLIFY 1, ITT, platelets 50-100 (subgroup 2)",61%
same,Week 24 TI rate,"[1]; SIMPLIFY 1, ITT, platelets 100-150 (subgroup 3)",62%
same,Week 24 TI rate,"[1]; SIMPLIFY 1, baseline TSS ≥ 6, all patients",67%
same,Week 24 TI rate,"[1]; SIMPLIFY 1, baseline TSS ≥ 6, platelets 50-100 (subgroup 2)",64%
same,Week 24 TI rate,"[1]; SIMPLIFY 1, baseline TSS ≥ 6, platelets 100-150 (subgroup 3)",68%
same,Week 24 TI rate,"[1]; SIMPLIFY 1, baseline TSS ≥ 10, all patients",67%
same,Week 24 TI rate,"[1]; SIMPLIFY 1, baseline TSS ≥ 10, platelets 50-100 (subgroup 2)",64%
same,Week 24 TI rate,"[1]; SIMPLIFY 1, baseline TSS ≥ 10, platelets 100-150 (subgroup 3)",68%
same,≥8 week transfusion independence rate,[1]; [5],58.5%
same,≥12 week transfusion independence rate,[1]; [5],49.1%
same,SRR Responders,[2]; 50 ≤ PLT < 100 ×10^9/L,7
same,SRR proportion (Wilson 95% CI),[2]; 50 ≤ PLT < 100 ×10^9/L,0.39
same,SRR Absolute risk difference (Newcombe 95% CI),[2]; 50 ≤ PLT < 100 ×10^9/L,0.39
same,SRR Responders,[2]; 100 ≤ PLT < 150 ×10^9/L,4
same,SRR proportion (Wilson 95% CI),[2]; 100 ≤ PLT < 150 ×10^9/L,0.14
same,SRR Absolute risk difference (Newcombe 95% CI),[2]; 100 ≤ PLT < 150 ×10^9/L,0.08
same,SRR Responders,[2]; ITT,57
same,SRR proportion (Wilson 95% CI),[2]; ITT,0.27
same,SRR Absolute risk difference (Newcombe 95% CI),[2]; ITT,−0.03
same,subjects who did not achieve a spleen response on ruxolitinib but did so after 24 weeks of additional momelotinib treatment,"[2]; SIMPLIFY 1, crossover arm",16.5%
same,spleen response (SRR) at any time in the open label phase,"[2]; SIMPLIFY 1, momelotinib arm",46.2%
same,SRR,"[2]; SIMPLIFY 1, overall",26.5%
same,SRR,"[2]; SIMPLIFY 1, week 24, ITT, all patients",27%
same,SRR,"[2]; SIMPLIFY 1, week 24, ITT, platelets 50-100 (subgroup 2)",39%
same,SRR,"[2]; SIMPLIFY 1, week 24, ITT, platelets 100-150 (subgroup 3)",14% ‡
same,SRR,"[2]; SIMPLIFY 1, week 24, baseline TSS ≥ 6, all patients",25%
same,SRR,"[2]; SIMPLIFY 1, week 24, baseline TSS ≥ 6, platelets 50-100 (subgroup 2)",43%
same,SRR,"[2]; SIMPLIFY 1, week 24, baseline TSS ≥ 6, platelets 100-150 (subgroup 3)",14% ‡
same,SRR,"[2]; SIMPLIFY 1, week 24, baseline TSS ≥ 10, all patients",24%
same,SRR,"[2]; SIMPLIFY 1, week 24, baseline TSS ≥ 10, platelets 50-100 (subgroup 2)",42%
same,SRR,"[2]; SIMPLIFY 1, week 24, baseline TSS ≥ 10, platelets 100-150 (subgroup 3)",13% ‡
same,spleen response compared with RUX,"[2]; SIMPLIFY 1, p=0.011",statistically non-inferior to RUX
